The source of these data is patent US20230020092 (published 2023).

{C6NH2} = C6 amino linker (-C6-NH2)

This data set in a line: fmoc spps; Rink amide resin (1.0 mmol/g); HATU/DIEA (cyclization). Particulars: conjugation step, scale 1 mmol, TFA salt.

As for “5'-GCT ATT ACC TTA ACC CAG-3' -C6-NH2 (all PMO monomers) (SEQ ID NO: 222) (GCTATTACCTTAACCCAG; all phosphorodiamidate morpholino (PMO), 3' {C6NH2})”, the “final purity method not stated” value was over 99%.
